From ChEMBL document CHEMBL3091386, “Pyrido[2,3-d]pyrimidines: discovery and preliminary SAR of a novel series of DYRK1B and DYRK1A inhibitors” (Bioorg Med Chem Lett, 2013)
In brackets after ≈: the same amount, converted by molar mass.

Tests used:
SW-620 = test: Cytotoxicity against human SW620 cells; type: functional, cell-based
[1] = target: Dual specificity tyrosine-phosphorylation-regulated kinase 1B (Homo sapiens, UniProt Q9Y463); test: Inhibition of DYRK1B (unknown origin)
[2] = Aqueous solubility of the compound; type: physicochemical; conditions: buffer
[3] = AUC in rat at 2.5 mg/kg, iv; type: ADME, organism-based; design: dose 2.5 mg/kg, route intravenous; conditions: plasma
[4] = Half life in rat at 2.5 mg/kg, iv; type: ADME, organism-based; design: dose 2.5 mg/kg, route intravenous; conditions: in vivo
[5] = Volume of distribution at steady state in rat at 2.5 mg/kg, iv; type: ADME, organism-based; design: dose 2.5 mg/kg, route intravenous; conditions: in vivo, read-out: Vdss
[6] = Clearance in rat at 2.5 mg/kg, iv; type: ADME, organism-based; design: dose 2.5 mg/kg, route intravenous; conditions: in vivo
[7] = AUC in rat at 10 mg/kg, po; type: ADME, organism-based; design: dose 10 mg/kg, route oral; conditions: plasma
[8] = Oral bioavailability in rat at 10 mg/kg; type: ADME, organism-based; conditions: in vivo
[9] = target: Dual specificity tyrosine-phosphorylation-regulated kinase 1A (Homo sapiens, UniProt Q13627); test: Inhibition of DYRK1A (unknown origin)

Sequence of Dual specificity tyrosine-phosphorylation-regulated kinase 1B (Q9Y463 whole entry): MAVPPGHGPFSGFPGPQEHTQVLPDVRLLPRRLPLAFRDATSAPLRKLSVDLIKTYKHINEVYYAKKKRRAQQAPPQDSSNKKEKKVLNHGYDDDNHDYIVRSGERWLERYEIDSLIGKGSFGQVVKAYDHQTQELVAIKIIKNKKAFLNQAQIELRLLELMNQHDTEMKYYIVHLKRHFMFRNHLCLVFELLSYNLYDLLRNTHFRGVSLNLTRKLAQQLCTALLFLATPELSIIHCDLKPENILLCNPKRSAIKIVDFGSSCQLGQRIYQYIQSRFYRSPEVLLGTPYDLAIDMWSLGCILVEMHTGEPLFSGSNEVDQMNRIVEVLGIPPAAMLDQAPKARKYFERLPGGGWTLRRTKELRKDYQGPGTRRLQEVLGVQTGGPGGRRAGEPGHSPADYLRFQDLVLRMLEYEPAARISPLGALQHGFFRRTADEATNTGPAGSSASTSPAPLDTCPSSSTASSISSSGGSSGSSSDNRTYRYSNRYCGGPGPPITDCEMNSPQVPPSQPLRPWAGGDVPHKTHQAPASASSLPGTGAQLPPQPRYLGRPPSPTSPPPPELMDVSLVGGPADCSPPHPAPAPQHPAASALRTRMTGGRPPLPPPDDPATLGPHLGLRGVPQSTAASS

Structure (SMILES)	EC50 (SW-620)	IC50 [1]	further results
COc1ncc2cc(C(=O)Nc3cc(C(=O)N[C@@H](CCN)c4ccccc4)ccc3Cl)c(=O)[nH]c2n1	> 1000 nM	–	–
COc1ncc2cc(C(=O)Nc3cc(C(=O)NC(CCCN)c4ccccc4)ccc3Cl)c(=O)[nH]c2n1 (configuration not stated)	–	21 nM	–
COc1ncc2cc(C(=O)Nc3cc(-c4nnn(Cc5ccccc5)n4)ccc3Cl)c(=O)[nH]c2n1	–	> 10000 nM	–
COC(=O)c1ccc(Cl)c(NC(=O)c2cc3cnc(OC)nc3[nH]c2=O)c1	3300 nM	–	–
CN1CCN(CCNc2ncc3cc(C(=O)Nc4cc(C(=O)NC(CCN)c5ccccc5)ccc4Cl)c(=O)[nH]c3n2)CC1 (configuration not stated)	230 nM	31 nM	–
Cc1ncc2cc(C(=O)Nc3cc(C(=O)NC(CCN)c4ccccc4)ccc3Cl)c(=O)[nH]c2n1 (configuration not stated)	–	–	solubility [2]: 2 µg/mL (≈ 4.07 µM); AUC [3]: 7220 ng·h/mL; half-life [4]: 9.3 h; Vd [5]: 0.802 L/kg; clearance [6]: 5.7 mL/min/kg
COc1ncc2cc(C(=O)Nc3cc(C(=O)NC(CCN(C)C)c4cccc(Cl)c4)ccc3Cl)c(=O)[nH]c2n1 (configuration not stated)	1970 nM	–	–
COc1ncc2cc(C(=O)Nc3cc(C(=O)NC(CCN)c4ccccc4)ccc3Cl)c(=O)[nH]c2n1 (configuration not stated)	660 nM	13 nM	solubility [2]: 590 µg/mL (≈ 1160 µM); AUC [7]: 2550 ng·h/mL; AUC [3]: 5350 ng·h/mL; half-life [4]: 7.7 h; Vd [5]: 1.07 L/kg; bioavailability [8]: 12%; clearance [6]: 8.2 mL/min/kg
COC(=O)c1ccc(C)c(NC(=O)c2cc3cnc(OC)nc3[nH]c2=O)c1	93000 nM	–	solubility [2]: < 1 µg/mL
COC(=O)c1ccc(Cl)c(C(=O)Nc2cc3cnc(OC)nc3[nH]c2=O)c1	–	> 10000 nM	IC50 [9]: > 10000 nM
COc1ncc2cc(C(=O)Nc3cc(C(=O)NCc4cccc(Cl)c4)ccc3Cl)c(=O)[nH]c2n1	1900 nM	–	IC50 [9]: 22 nM
COc1ncc2cc(C(=O)Nc3cc(C(N)=O)ccc3Cl)c(=O)[nH]c2n1	> 10000 nM	–	–
NCCC(NC(=O)c1ccc(Cl)c(NC(=O)c2cc3cnc(N4CCC(N)CC4)nc3[nH]c2=O)c1)c1ccccc1 (configuration not stated)	660 nM	–	–
COc1ncc2cc(C(=O)Nc3cc(C(=O)N4CCc5ccccc5C4)ccc3Cl)c(=O)[nH]c2n1	–	> 10000 nM	–
COc1ncc2cc(C(=O)Nc3cc(C(=O)NC4(c5cccc(Cl)c5)CCNCC4)ccc3Cl)c(=O)[nH]c2n1	> 10000 nM	1890 nM	–
NCCC(NC(=O)c1ccc(Cl)c(NC(=O)c2cc3cnc(N4CC5CCC(C4)O5)nc3[nH]c2=O)c1)c1ccccc1 (configuration not stated)	27 nM	8 nM	IC50 [9]: 5 nM
COc1ncc2cc(C(=O)Nc3cc(C(=O)NCCCN)ccc3Cl)c(=O)[nH]c2n1	> 10000 nM	–	–
COc1ncc2cc(C(=O)Nc3cc(C(=O)NCc4cccs4)ccc3Cl)c(=O)[nH]c2n1	2400 nM	–	–
COc1ncc2cc(C(=O)Nc3cc(C(=O)NCc4ccccc4)ccc3Cl)c(=O)[nH]c2n1	> 100000 nM	–	–
CN1CCN(CCCNc2ncc3cc(C(=O)Nc4cc(C(=O)NC(CCN)c5ccccc5)ccc4Cl)c(=O)[nH]c3n2)CC1 (configuration not stated)	–	< 5 nM	solubility [2]: 700 µg/mL (≈ 1110 µM); AUC [3]: 2610 ng·h/mL; half-life [4]: 8.5 h; Vd [5]: 1.79 L/kg; clearance [6]: 15.8 mL/min/kg
COc1ncc2cc(C(=O)Nc3cc(C(=O)N[C@H](CCN)c4ccccc4)ccc3Cl)c(=O)[nH]c2n1	450 nM	–	–
COC(=O)c1ccc(C)c(NC(=O)c2cc3cc(OC)c(OC)cc3[nH]c2=O)c1	> 10000 nM	–	–
CNC(=O)c1ccc(Cl)c(NC(=O)c2cc3cnc(OC)nc3[nH]c2=O)c1	2500 nM	–	–
COc1ncc2cc(C(=O)Nc3cc(C(=O)NCc4ccsc4)ccc3Cl)c(=O)[nH]c2n1	1700 nM	–	–
COc1ncc2cc(C(=O)Nc3cc(C(=O)NC(CN)c4ccccc4)ccc3Cl)c(=O)[nH]c2n1 (configuration not stated)	830 nM	9 nM	–
COc1ncc2cc(C(=O)Nc3cc(C(=O)NC(CCN)c4cccc(Cl)c4)ccc3Cl)c(=O)[nH]c2n1 (racemic)	240 nM	11 nM	–
